Source: US20190284136A1, “INDOLINE DERIVATIVES” (ViiV HEALTHCARE UK LIMITED, priority 2016, published 2019)
pIC50: −log10 of the molar value.

What follows are molecules tested on HIV (assay: Table 1 IC50 of the examples (assay method not given; patent concerns inhibiting HIV replication)). Conditions: Human immunodeficiency virus 1.
Type: cell-based
Molecule `Cc1ccc(-c2c3c(cc(C)c2[C@H](OC(C)(C)C)C(=O)O)N(S(=O)(=O)N2CCCCC2)CC3)cc1` [Example 36, (S)-2-(tert-Butoxy)-2-(6-methyl-1-(piperidin-1-ylsulfonyl)-4-(p-tolyl)indolin-5-yl)acetic acid] has a pIC50 of 7.19. With `Cc1ccc(C(=O)N2CCc3c2cc(C)c([C@H](OC(C)(C)C)C(=O)O)c3-c2cc(F)c3c(c2C)CCCO3)cc1C(F)(F)F` (atropisomer, axis not shown) [Example 146, (S)-2-(tert-Butoxy)-2-((R)-4-(8-fluoro-5-methylchroman-6-yl)-6-methyl-1-(4-methyl-3-(trifluoromethyl)benzoyl)indolin-5-yl)acetic acid] the pIC50 was 8.30. `COc1cc(Cl)ccc1C(=O)N1CCc2c1cc(C)c([C@H](OC(C)(C)C)C(=O)O)c2-c1ccc2c(c1C)CCCO2` (atropisomer, axis not shown) [Example 183, (S)-2-(tert-Butoxy)-2-((R)-1-(4-chloro-2-methoxybenzoyl)-6-methyl-4-(5-methylchroman-6-yl)indolin-5-yl)acetic acid] showed a pIC50 of 8.40. In the case of `COc1ccc(C(=O)N2CCc3c2cc(C)c([C@H](OC(C)(C)C)C(=O)O)c3-c2cc(F)c3c(c2C)CCCO3)cc1OC` (atropisomer, axis not shown) [Example 86, (S)-2-(tert-Butoxy)-2-((R)-1-(3,4-dimethoxybenzoyl)-4-(8-fluoro-5-methylchroman-6-yl)-6-methylindolin-5-yl)acetic acid], the pIC50 was 8.30. For `Cc1cc2c(c(-c3cc(F)c4c(c3C)CCCO4)c1[C@H](OC(C)(C)C)C(=O)O)CCN2C(=O)c1cc(C(F)(F)F)cc(C(F)(F)F)c1` (atropisomer, axis not shown) [Example 133, (S)-2-((R)-1-(3,5-Bis(trifluoromethyl)benzoyl)-4-(8-fluoro-5-methylchroman-6-yl)-6-methylindolin-5-yl)-2-(tert-butoxy)acetic acid], the pIC50 was 7.17. `Cc1ccc(C(=O)N2CCc3c2cc(C)c([C@H](OC(C)(C)C)C(=O)O)c3-c2cc(F)c3c(c2C)CCCO3)cc1F` (atropisomer, axis not shown) [Example 73, (S)-2-(tert-Butoxy)-2-((R)-1-(3-fluoro-4-methylbenzoyl)-4-(8-fluoro-5-methylchroman-6-yl)-6-methylindolin-5-yl)acetic acid] showed a pIC50 of 8.22. `COc1cc(C)cc(C(=O)N2CCc3c2cc(C)c([C@H](OC(C)(C)C)C(=O)O)c3-c2cc(F)c3c(c2C)CCCO3)c1` (atropisomer, axis not shown) [Example 89, (S)-2-(tert-Butoxy)-2-((R)-4-(8-fluoro-5-methylchroman-6-yl)-1-(3-methoxy-5-methylbenzoyl)-6-methylindolin-5-yl)acetic acid] showed a pIC50 of 8.52. Work on `COc1ccc(C(=O)n2ccc3c(-c4cc(F)c5c(c4C)CCCO5)c([C@H](OC(C)(C)C)C(=O)O)c(C)cc32)cc1C` [Example 202, (S)-2-(tert-Butoxy)-2-((R)-4-(8-Fluoro-5-methylchroman-6-yl)-1-(4-methoxy-3-methylbenzoyl)-6-methyl-1H-indol-5-yl)acetic acid] yielded a pIC50 of 7.03. With `Cc1ccc(-c2c3c(cc(C)c2[C@H](OC(C)(C)C)C(=O)O)N(C(=O)NC2CCCCC2)CC3)cc1` [Example 37, (S)-2-(tert-Butoxy)-2-(1-(cyclohexylcarbamoyl)-6-methyl-4-(p-tolyl)indolin-5-yl)acetic acid] the pIC50 was 7.10. `COc1ccc(C(=O)N2CCc3c2cc(C)c([C@H](OC(C)(C)C)C(=O)O)c3-c2ccc3c(c2C)CCCO3)c(OC)c1` (atropisomer, axis not shown) [Example 185, (S)-2-(tert-Butoxy)-2-((R)-1-(2,4-dimethoxybenzoyl)-6-methyl-4-(5-methylchroman-6-yl)indolin-5-yl)acetic acid] was tested, and the pIC50 was 8.05. `CNC(=O)c1ccc(C(=O)N2CCc3c2cc(C)c([C@H](OC(C)(C)C)C(=O)O)c3-c2cc(F)c3c(c2C)CCCO3)cc1` (atropisomer, axis not shown) [Example 95, (S)-2-(tert-Butoxy)-2-((R)-4-(8-fluoro-5-methylchroman-6-yl)-6-methyl-1-(4-(methylcarbamoyl)benzoyl)indolin-5-yl)acetic acid] showed a pIC50 of 6.85. In the case of `Cc1cc2c(c(-c3ccc4c(c3C)CCCO4)c1[C@H](OC(C)(C)C)C(=O)O)CCN2C(=O)c1cccc2c1OCCO2` (atropisomer, axis not shown) [Example 182, (S)-2-(tert-Butoxy)-2-((R)-1-(2,3-dihydrobenzo[b][1,4]dioxine-5-carbonyl)-6-methyl-4-(5-methylchroman-6-yl)indolin-5-yl)acetic acid], the pIC50 was 8.30. `COc1cc(C(=O)N2CCc3c2cc(C)c([C@H](OC(C)(C)C)C(=O)O)c3-c2ccc(C)cc2)cc(F)c1F` [Example 12, (S)-2-(tert-Butoxy)-2-(1-(3,4-difluoro-5-methoxybenzoyl)-6-methyl-4-(p-tolyl)indolin-5-yl)acetic acid] showed a pIC50 of 8.40. `Cc1cc2c(ccn2Cc2ccccn2)c(-c2cc(F)c3c(c2C)CCCO3)c1[C@H](OC(C)(C)C)C(=O)O` (atropisomer, axis not shown) [Example 201, (S)-2-(tert-Butoxy)-2-((R)-4-(8-Fluoro-5-methylchroman-6-yl)-6-methyl-1-(pyridin-2-ylmethyl)-1H-indol-5-yl)acetic acid] was tested, and the pIC50 was 7.10. `Cc1ccc(-c2c3c(cc(C)c2C(OC(C)(C)C)C(=O)O)N(C(=O)c2cccc(F)c2)CCC3)cc1` (stereo not shown) [Example 214, 2-(tert-Butoxy)-2-(1-(3-fluorobenzoyl)-7-methyl-5-(p-tolyl)-1,2,3,4-tetrahydroquinolin-6-yl)acetic acid] was tested, and the pIC50 was 5.45. In the case of `COc1ccc(C(=O)N2c3cc(C)c([C@H](OC(C)(C)C)C(=O)O)c(-c4cc(F)c5c(c4C)CCCO5)c3CC2(C)C)cc1C` (atropisomer, axis not shown) [Example 206, (S)-2-(tert-Butoxy)-2-((R)-4-(8-fluoro-5-methylchroman-6-yl)-1-(4-methoxy-3-methylbenzoyl)-2,2,6-trimethylindolin-5-yl)acetic acid], the pIC50 was 7.89. `COc1c(C(=O)N2CCc3c2cc(C)c([C@H](OC(C)(C)C)C(=O)O)c3-c2cc(F)c3c(c2C)CCCO3)ccc(F)c1F` (atropisomer, axis not shown) [Example 113, (S)-2-(tert-Butoxy)-2-((R)-1-(3,4-difluoro-2-methoxybenzoyl)-4-(8-fluoro-5-methylchroman-6-yl)-6-methylindolin-5-yl)acetic acid] was tested, and the pIC50 was 8.70. `Cc1cc2c(c(-c3cc(F)c4c(c3C)CCCO4)c1[C@H](OC(C)(C)C)C(=O)O)CCN2C(=O)C1=CCCCC1` (atropisomer, axis not shown) [Example 130, (S)-2-(tert-Butoxy)-2-((R)-1-(cyclohex-1-ene-1-carbonyl)-4-(8-fluoro-5-methylchroman-6-yl)-6-methylindolin-5-yl)acetic acid] was tested, and the pIC50 was 8.40. With `Cc1cc(Cl)ccc1C(=O)N1CCc2c1cc(C)c([C@H](OC(C)(C)C)C(=O)O)c2-c1cc(F)c2c(c1C)CCCO2` (atropisomer, axis not shown) [Example 47, (S)-2-(tert-Butoxy)-2-((R)-1-(4-chloro-2-methylbenzoyl)-4-(8-fluoro-5-methylchroman-6-yl)-6-methylindolin-5-yl)acetic acid] the pIC50 was 8.40. With `CNC(=O)c1cccc(C(=O)N2CCc3c2cc(C)c([C@H](OC(C)(C)C)C(=O)O)c3-c2cc(F)c3c(c2C)CCCO3)c1` (atropisomer, axis not shown) [Example 153, (S)-2-(tert-Butoxy)-2-((R)-4-(8-fluoro-5-methylchroman-6-yl)-6-methyl-1-(3-(methylcarbamoyl)benzoyl)indolin-5-yl)acetic acid] the pIC50 was 6.90. `Cc1cccc(C(=O)N2CCc3c2cc(C)c([C@H](OC(C)(C)C)C(=O)O)c3-c2cc(F)c3c(c2C)CCCO3)c1Cl` (atropisomer, axis not shown) [Example 135, (S)-2-(tert-Butoxy)-2-((R)-1-(2-chloro-3-methylbenzoyl)-4-(8-fluoro-5-methylchroman-6-yl)-6-methylindolin-5-yl)acetic acid] gave a pIC50 of 8.40. `COc1cc(Cl)cc(C(=O)N2CCc3c2cc(C)c([C@H](OC(C)(C)C)C(=O)O)c3-c2cc(F)c3c(c2C)CCCO3)c1` (atropisomer, axis not shown) [Example 117] gave a pIC50 of 7.80. Work on `Cc1cc2c(c(-c3cc(F)c4c(c3C)CCCO4)c1[C@H](OC(C)(C)C)C(=O)O)CCN2C(=O)c1ccco1` (atropisomer, axis not shown) [Example 131, (S)-2-(tert-Butoxy)-2-((R)-4-(8-fluoro-5-methylchroman-6-yl)-1-(furan-2-carbonyl)-6-methylindolin-5-yl)acetic acid] yielded a pIC50 of 6.96. For `COc1cc(C(=O)N2CCc3c2cc(C)c([C@H](OC(C)(C)C)C(=O)O)c3-c2cc(F)c3c(c2C)CCCO3)ccc1F` (atropisomer, axis not shown) [Example 142, (S)-2-(tert-Butoxy)-2-((R)-1-(4-fluoro-3-methoxybenzoyl)-4-(8-fluoro-5-methylchroman-6-yl)-6-methylindolin-5-yl)acetic acid], the pIC50 was 8.70. For `Cc1ccc(Cl)cc1C(=O)N1CCc2c1cc(C)c([C@H](OC(C)(C)C)C(=O)O)c2-c1cc(F)c2c(c1C)CCCO2` (atropisomer, axis not shown) [Example 149], the pIC50 was 8.30. Work on `COc1cccc(C(=O)N2CCc3c2cc(C)c([C@H](OC(C)(C)C)C(=O)O)c3-c2cc(F)c3c(c2C)CCCO3)c1OC` (atropisomer, axis not shown) [Example 84, (S)-2-(tert-Butoxy)-2-((R)-1-(2,3-dimethoxybenzoyl)-4-(8-fluoro-5-methylchroman-6-yl)-6-methylindolin-5-yl)acetic acid] yielded a pIC50 of 7.39. `COc1ccc(C(=O)N2CCc3c2cc(C)c([C@H](OC(C)(C)C)C(=O)O)c3-c2cc(F)c3c(c2C)CCCO3)c(Cl)c1` (atropisomer, axis not shown) [Example 128, (S)-2-(tert-Butoxy)-2-((R)-1-(2-chloro-4-methoxybenzoyl)-4-(8-fluoro-5-methylchroman-6-yl)-6-methylindolin-5-yl)acetic acid] gave a pIC50 of 8.30. `Cc1cc2c(c(-c3cc(F)c4c(c3C)CCCO4)c1[C@H](OC(C)(C)C)C(=O)O)CCN2C(=O)C1CCCC1` (atropisomer, axis not shown) [Example 54, (S)-2-(tert-Butoxy)-2-((R)-1-(cyclopentanecarbonyl)-4-(8-fluoro-5-methylchroman-6-yl)-6-methylindolin-5-yl)acetic acid] gave a pIC50 of 7.92.
